# From US20260273028A1, “PEROXIDASE COMPOSITIONS CONTAINING IMPROVED ENHANCING AGENTS” (FLEN HEALTH PHARMA NV, priority 2022, published 2026)
# Legend:
# [1] = tested on: Pseudomonas aeruginosa ATCC®9027™; assay: Absolute microbial counts in function of enzyme solution concentration; type: cell-based
# From the text: (§1) Absolute microbial counts in function of concentration of the antimicrobial agent tested are useful to monitor the bactericidal and fungicidal efficacy of that agent.
# (§2) To determine the absolute number of live microorganisms in function of different enzyme solution concentrations tested, a classical broth microdilution assay combined with standard CFU enumeration techniques was used to determine the susceptibility of a series of microbes commonly detected in infected wounds, including (a) the Gram-positive bacterium Staphylococcus aureus ATCC® 6538™ (results shown below), (b) the Gram-negative bacterium Pseudomonas aeruginosa ATCC®9027™ (results shown below), (c) the yeast Candida albicans ATCC®10231™ (results shown below), and (d) the fungus Aspergillus niger ATCC®16404™ (results shown below). In brief, the broth microdilution assay was set up as previously described (see 2.1). After incubation, the absolute microbial count at the MIC and following higher concentrations (MICx2, MICx4, and so on) was determined using standard CFU enumeration techniques. For each combination evaluated, this test was repeated at least 5 times. The collected data were further analyzed in MS Excel and expressed as log CFU/ml. Mean results were plotted in function of enzyme solution concentration.
# [2] = tested on: Aspergillus niger ATCC®16404™; assay: as above; type: cell-based; details: 0.005%-0.000156% (v/v) GOX+LPO
# From the text: as §1, §2
# [3] = exemplary values; cited from earlier work
# S. aureus (ATCC®6538™) = assay: Microbial challenge testing in alginogel with GOX+LPO; type: cell-based; details: for antimicrobial activity of enhancing candidate only against S. aureus: alginogel without enzymes, highest concentration tested; for reduction in absolute S. aureus counts compared to reference (enzymes only): alginogel, 0.0075% GOX+LPO
# Procedure: (§3) To determine the ability of an antimicrobial agent to elicit an antimicrobial preserving efficacy in a gel environment, a microbiological challenge test can be performed. Here, the antimicrobial agent is a combination of the natural enzymes GOX+LPO. […] Microbial challenge testing was performed according to the method described in the European Pharmacopoeia current version chapter 5.1.3 ‘Efficacy of antimicrobial preservation’, but with adapted time points (0, 10, 20, 30, 40, 50, 60, 70 and 80 min instead of 0, 2, 7, 14 and 28 days). In brief, for every enhancing agent to be evaluated, a lab-scale alginogel (based on the Flaminal® formulation, but without the original enhancer guaiacol) including 0.0075% GOX+LPO (1:1) was prepared according to standard practices. Enhancing agents were added to the alginogel in a final concentration ranging from 0.01 to 0,00025% (v/w). As a reference, an alginogel including 0.0075% GOX+LPO (1:1) without the addition of any enhancing agent was included (designated as: enzymes only). As a control, an alginogel without both GOX+LPO (1:1) enzyme solution and enhancing agent (designated as: empty gel) as well as an alginogel only containing the enhancing agent only (designated as: enhancing candidate only) were included. After preparation, a homogenous sample of 10 g was transferred into a 50 ml conical tube for each alginogel to be evaluated and microorganism to be tested. For each test microorganism, including S. aureus (ATCC®6538™), P. aeruginosa (ATCC®9027™), C. albicans (ATCC®10231™) and A. niger (ATCC®16404 ™), a microbial suspension of about 10^8 CFU/ml was prepared in sterile diluent (buffered sodium chloride-peptone solution). Then, the 50 ml conical tubes containing the alginogel samples to be evaluated were inoculated with 100 μl of the designated inoculum. At the start (time point 0) and after 0, 10, 20, 30, 40, 50, 60, 70 and 80 min, the number of viable microorganisms per gram product (expressed as CFU/g) was determined by transferring a sample of 0.5 g of the product into a 15 ml conical tube containing 4.5 ml of sterile diluent and applying general dilution and plate count techniques. For each combination evaluated, this test was repeated at least 1-3 times. The collected data were further analyzed in MS Excel. Mean absolute counts (expressed as log CFU/g) were visualized in a graph.
# The purpose of the hereby described experiment was to compare the efficacy of antimicrobial activity enhancement of the GOX+LPO (1:1) enzyme combination by ethanolamine and proline in a microbial challenge test using S. aureus. The test was set up as described in the section on ‘challenge testing’ in Example 2.4. The test was repeated at least 3 times.
# The purpose of the hereby described experiment was to compare the efficacy of antimicrobial activity of the GOX+LPO (1:1) enzyme combination in the presence of potassium chloride/potassium bromide and potassium iodide. A microbial challenge test using S. aureus was performed. The test was set up as described in the section on ‘challenge testing’ in Example 2.4.
# [4] = tested on: P. aeruginosa (ATCC®9027™); assay: as above; type: cell-based; details: for antimicrobial activity of enhancing candidate only against P. aeruginosa: alginogel without enzymes, highest concentration tested; for reduction in absolute P. aeruginosa counts compared to reference (enzymes only): alginogel, 0.0075% GOX+LPO
# Procedure: as §3
# A. niger (ATCC®16404 ™) = assay: as above; type: cell-based; details: for reduction in absolute A. niger counts compared to guaiacol in the same concentration: alginogel with GOX+LPO; for antimicrobial activity of enhancing candidate only against A. niger: alginogel without enzymes, highest concentration tested; for reduction in absolute A. niger counts compared to reference (enzymes only): alginogel, 0.0075% GOX+LPO
# Procedure: as §3
# [5] = tested on: C. albicans (ATCC®10231™); assay: as above; type: cell-based; details: for antimicrobial activity of enhancing candidate only against C. albicans: alginogel without enzymes, highest concentration tested; for reduction in absolute C. albicans counts compared to reference (enzymes only): alginogel, 0.0075% GOX+LPO
# Procedure: as §3
# [6] = enhancer 0,1%, 0,005%-0.000625% (v/v) GOX+LPO
# [7] = enhancer 1%, 0,005%-0.000156% (v/v) GOX+LPO
# [8] = alginogel with GOX+LPO, enhancer 0.0005%
"reduction in absolute P. aeruginosa counts compared to reference [1, 6]","reduction in absolute P. aeruginosa counts compared to reference [1, 7]",reduction in absolute S. aureus counts compared to reference (enzymes only) (S. aureus (ATCC®6538™); enhancer 0.0025%),reduction in absolute P. aeruginosa counts compared to reference (enzymes only) ([4]; enhancer 0.0025%),reduction in absolute C. albicans counts compared to reference (enzymes only) ([5]; enhancer 0.0025%),Structure (SMILES),LogP (octanol/water partition coefficient) [3],antimicrobial activity of enhancing candidate only against S. aureus (S. aureus (ATCC®6538™)),antimicrobial activity of enhancing candidate only against P. aeruginosa [4],antimicrobial activity of enhancing candidate only against A. niger (A. niger (ATCC®16404 ™)),antimicrobial activity of enhancing candidate only against C. albicans [5],further results
stronger reduction,stronger reduction,immediate entire reduction,immediate entire reduction,immediate entire reduction,"NC(=O)C[C@H](N)C(=O)O [Asparagine, asparagine]",LogP = −3.82,no antimicrobial activity,no antimicrobial activity,no antimicrobial activity,no antimicrobial activity,"reduction in absolute A. niger counts compared to reference ([2]; enhancer 1-0.05%): stronger reduction; reduction in absolute S. aureus counts compared to reference (enzymes only) (S. aureus (ATCC®6538™); enhancer 0,00125%): faster complete reduction; reduction in absolute P. aeruginosa counts compared to reference (enzymes only) ([4]; enhancer 0,00125%): faster complete reduction; reduction in absolute A. niger counts compared to guaiacol in the same concentration (A. niger (ATCC®16404 ™); enhancer 0.0005%): faster complete reduction; reduction in absolute A. niger counts compared to reference (enzymes only) (A. niger (ATCC®16404 ™); enhancer 0,0025-0,0005%): faster complete reduction; reduction in absolute C. albicans counts compared to reference (enzymes only) ([5]; enhancer 0.00125%): faster complete reduction"
stronger reduction,stronger reduction,immediate entire reduction,immediate entire reduction,immediate entire reduction,"C[C@@H](O)[C@H](N)C(=O)O [Threonine, threonine]",LogP = −2.94,no antimicrobial activity,no antimicrobial activity,no antimicrobial activity,no antimicrobial activity,"reduction in absolute A. niger counts compared to reference ([2]; enhancer 1-0.01%): stronger reduction; reduction in absolute S. aureus counts compared to guaiacol in the same concentration (S. aureus (ATCC®6538™); [8]): faster complete reduction; reduction in absolute S. aureus counts compared to reference (enzymes only) (S. aureus (ATCC®6538™); enhancer 0.00125-0.0005%): faster complete reduction; reduction in absolute P. aeruginosa counts compared to guaiacol in the same concentration [4, 8]: faster complete reduction; reduction in absolute P. aeruginosa counts compared to reference (enzymes only) ([4]; enhancer 0.00125-0.0005%): faster complete reduction; reduction in absolute A. niger counts compared to guaiacol in the same concentration (A. niger (ATCC®16404 ™); enhancer 0.0025%): faster complete reduction; reduction in absolute A. niger counts compared to reference (enzymes only) (A. niger (ATCC®16404 ™); enhancer 0.0025%): faster complete reduction; reduction in absolute C. albicans counts compared to guaiacol in the same concentration [5, 8]: faster complete reduction; reduction in absolute C. albicans counts compared to reference (enzymes only) ([5]; enhancer 0,00125-0,0005%): faster complete reduction"
